Two compounds from US20240190838A1, “LZK-TARGETING DEGRADERS AND METHODS OF USE” (The U.S.A., as represented by the Secretary, Department of …, priority 2020, published 2024) can be followed below.

Experiment [1] has as its system cyclins and cyclin-dependent kinases. Nature of the experiment: Abundance of CDKs and cyclins in CAL33 cells. The following applies: CAL33, 48 hours. Type of experiment: cell-based. As to the method: (§1) Generally, cells were plated in six-well or 35-mm plates for 24 hours, after which doxycycline was added or treatment with specific inhibitor was administered using […] for 48 hours. After appropriate treatment time, cells were washed with ice-cold phosphate-buffered saline without Ca and Mg (Quality Biological) and then lysed on ice with RIPA buffer (50 mM NaCl, 1.0% o IGEPAL® CA-630, 0.5% o sodium deoxycholate, 0.10% SDS, 50 mM Tris, pH 8.0) (Sigma-Aldrich) supplemented with protease inhibitor tablet (Sigma-Aldrich) and phosphatase inhibitor cocktails 2 and 3 (Sigma-Aldrich) followed by centrifugation at 15,000 rpm for 10 minutes at 4° C. Protein concentrations were determined from the cell lysate by using 660 nm Protein Assay Reagent (Pierce). Cell extracts were denatured, subjected to SDS-PAGE, transferred to PVDF membranes (Bio-Rad) and blocked for 2 hours using 5 bovine serum albumin (BSA) in phosphate-buffered saline and 0.10 Tween® 20 (PBS-T). The membranes were incubated with the specific antibodies overnight in […] at 4° C. followed by a 1 hour incubation with the appropriate horseradish peroxidase-conjugated secondary antibodies and signal was detected by chemiluminescence (Thermo Fisher).

Experiment [2] concerns the target T1, LZK (Homo sapiens, UniProt O43283).
T1 sequence (O43283 1-966): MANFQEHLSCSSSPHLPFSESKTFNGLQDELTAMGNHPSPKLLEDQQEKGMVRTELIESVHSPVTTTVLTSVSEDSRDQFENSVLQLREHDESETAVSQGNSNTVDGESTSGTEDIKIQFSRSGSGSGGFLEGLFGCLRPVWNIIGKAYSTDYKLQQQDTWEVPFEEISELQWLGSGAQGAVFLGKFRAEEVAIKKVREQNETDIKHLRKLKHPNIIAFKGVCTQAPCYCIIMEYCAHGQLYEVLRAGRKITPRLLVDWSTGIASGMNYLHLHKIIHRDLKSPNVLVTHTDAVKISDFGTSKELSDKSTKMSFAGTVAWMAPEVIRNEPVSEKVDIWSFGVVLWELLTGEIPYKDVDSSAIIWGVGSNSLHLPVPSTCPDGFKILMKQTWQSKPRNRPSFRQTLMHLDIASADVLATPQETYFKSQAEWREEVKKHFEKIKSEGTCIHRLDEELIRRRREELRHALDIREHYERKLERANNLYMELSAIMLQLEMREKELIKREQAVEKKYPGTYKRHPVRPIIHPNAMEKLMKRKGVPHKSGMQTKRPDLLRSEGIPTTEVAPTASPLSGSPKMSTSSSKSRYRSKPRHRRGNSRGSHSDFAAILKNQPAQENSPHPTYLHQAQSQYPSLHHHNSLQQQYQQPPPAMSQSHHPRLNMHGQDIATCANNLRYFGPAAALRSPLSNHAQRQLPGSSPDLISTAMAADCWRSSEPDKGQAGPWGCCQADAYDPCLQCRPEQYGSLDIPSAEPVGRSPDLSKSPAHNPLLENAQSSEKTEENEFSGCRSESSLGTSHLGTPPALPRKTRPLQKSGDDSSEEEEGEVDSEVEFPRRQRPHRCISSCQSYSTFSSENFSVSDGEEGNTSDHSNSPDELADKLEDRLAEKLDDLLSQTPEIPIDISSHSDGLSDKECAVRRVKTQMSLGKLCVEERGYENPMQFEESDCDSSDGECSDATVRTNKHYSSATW
Nature of the experiment: LZK degradation (doxycycline-induced LZK expression, immunoblot) in CAL33 cells. It is filed as cell-based. More on the design: V5 (named only in the vector); expressed in transfected cells; host or cells: CAL33 HNSCC cells, lentiviral T-REx system, induced with doxycycline.
Excerpt: The ViraPower HiPerform T-REx Gateway Expression System (Invitrogen) was used to generate cells with tetracycline-inducible expression of LZK. In brief, wild-type (WT) or drug-resistant mutant (Q240S) LZK (cloned into pLenti6.3/TO/V5-DEST vector) and pLenti3.3/TR (for tetracycline repressor expression) were transfected into 293FT cells using Lipofectamine 2000 to generate lentiviral stock. Cell lines were generated by antibiotic selection (blasticidin [Gibco] and geneticin [Gibco]). Doxycycline (Sigma-Aldrich) was used at 1 μg/mL to induce LZK expression.
as §1

Another experiment has as its system MSK921 cells. Nature of the experiment: Colony formation assay, MSK921. It is filed as cell-based. The note with it: 200 nM, 14 days; cells lacking amplified MAP3K13. How it is done: Crystal violet assays were used to assess relative cell growth and survival after treatment with specific compounds. In general, cells were plated in triplicate in 12-well plates for 24 hours before drug treatments were added using 10% FBS media. The plates were incubated for 14 days, with the media and drug being replaced every 48 hours. The cells were then washed with phosphate-buffered saline and fixed in ice-cold methanol before being stained with 0.5% crystal violet (Sigma-Aldrich) in 25% methanol. Images were taken using a ChemiDoc MP Imaging System (Bio Rad), and for quantification, the crystal violet stain was dissolved in 33% acetic acid, incubated for 20 minutes with shaking, and read at 595 nm using iMark™ Microplate Absorbance Reader (Bio-Rad). Graphs display percent colony formation relative to the DMSO-treated control sample.

In experiment [3] the target is T1, LZK. The experiment can be described thus: In vitro kinase assay (LZK phosphorylation of MKK7). The note with it: 100 μM ATP. Type of experiment: biochemical. More on the design: purchased Carna Biosciences 09-114. How it is done:
The assay was performed with 100 μM ATP at 37° C. for 30 minutes. Following the addition of 4× reducing SDS sample buffer, proteins were resolved by sodium dodecyl sulfate-polyacrylamide gel electrophoresis (SDS-PAGE) and immunoblot analysis was performed as stated previously.

For `Cc1ncsc1-c1ccc([C@H](C)NC(=O)[C@@H]2C[C@@H](O)CN2C(=O)[C@@H](NC(=O)CCCCCCC(=O)N2CCC(c3cc(Nc4cc(C#N)ccn4)nc(N4CCC(F)(F)C4)c3)CC2)C(C)(C)C)cc1` [Compound 3], in experiment [1], the “expression of cyclins and cyclin-dependent kinases” value is “decreased expression of cyclins and cyclin-dependent kinases”. Besides, at LZK [2] (1 μM for 48 hours), the LZK degradation entry is recorded as “degraded LZK”. Besides, the “rescue of degrader-mediated loss of LZK expression by MG132” value at LZK [2] (two-hour pretreatment MG132 (3 μM), degrader 1 μM 24 hours) was “rescued by adding a proteasome inhibitor (MG132)”. The “rescue of degrader-mediated loss of LZK expression by MLN4924” value on LZK [2] (two-hour pretreatment MLN4924 (500 nM), degrader 1 μM 24 hours) is recorded as “rescued with MLN4924”.
Regarding `N#Cc1ccnc(Nc2cc(C3CCN(C4COC4)CC3)cc(N3CCC(F)(F)C3)n2)c1` [GNE-3511], the colony formation result with MSK921 cells is listed as “only a minor reduction in colony formation”. In addition, at LZK [3], the “in vitro phosphorylation of MKK7” value is “decreased in vitro phosphorylation of MKK7”.
